ChEMBL document CHEMBL5291721, “A preclinical secondary pharmacology resource illuminates target-adverse drug reaction associations of marketed drugs” (Nat Commun, 2023)

Tests used:
[1] = target: 5-hydroxytryptamine receptor 6 (Homo sapiens, UniProt P50406)
[2] = target: T1, Peroxisome proliferator-activated receptor gamma (Homo sapiens, UniProt P37231); assay type: functional
T1 sequence (P37231 whole entry): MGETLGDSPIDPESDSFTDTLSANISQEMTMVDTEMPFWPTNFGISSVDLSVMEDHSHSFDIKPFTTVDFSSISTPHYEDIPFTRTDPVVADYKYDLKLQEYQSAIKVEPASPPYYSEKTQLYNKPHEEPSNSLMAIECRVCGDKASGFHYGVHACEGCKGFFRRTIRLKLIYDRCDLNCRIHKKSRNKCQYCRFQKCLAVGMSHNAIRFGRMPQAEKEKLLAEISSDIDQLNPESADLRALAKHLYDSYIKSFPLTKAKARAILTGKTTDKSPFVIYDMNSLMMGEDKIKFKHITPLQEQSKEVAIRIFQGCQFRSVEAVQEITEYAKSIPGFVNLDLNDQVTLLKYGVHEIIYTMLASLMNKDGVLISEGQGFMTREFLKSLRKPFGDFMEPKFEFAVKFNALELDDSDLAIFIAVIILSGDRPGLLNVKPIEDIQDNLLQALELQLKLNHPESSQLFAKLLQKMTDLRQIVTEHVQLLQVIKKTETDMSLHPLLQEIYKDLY

[3] = target: D(1A) dopamine receptor (Homo sapiens, UniProt P21728)
[4] = target: T1, Peroxisome proliferator-activated receptor gamma; assay type: functional; remark: listed apart in the source
[5] = target: T2, D(4) dopamine receptor (Homo sapiens, UniProt P21917)
T2 sequence (P21917 whole entry): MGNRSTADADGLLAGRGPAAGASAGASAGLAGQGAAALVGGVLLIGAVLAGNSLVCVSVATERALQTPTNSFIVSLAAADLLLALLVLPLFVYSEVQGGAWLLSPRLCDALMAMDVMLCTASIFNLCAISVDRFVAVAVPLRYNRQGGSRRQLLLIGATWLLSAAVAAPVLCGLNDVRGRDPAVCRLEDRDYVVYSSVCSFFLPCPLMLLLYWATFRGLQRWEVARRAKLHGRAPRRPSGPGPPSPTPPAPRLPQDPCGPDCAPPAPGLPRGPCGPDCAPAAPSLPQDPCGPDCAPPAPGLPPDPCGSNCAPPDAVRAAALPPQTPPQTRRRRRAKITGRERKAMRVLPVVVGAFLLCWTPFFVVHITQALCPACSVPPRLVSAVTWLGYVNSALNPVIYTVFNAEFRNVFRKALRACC

[6] = target: Estrogen receptor beta (Homo sapiens, UniProt Q92731)
[7] = target: Beta-1 adrenergic receptor (Homo sapiens, UniProt P08588); assay type: functional, cell-based
[8] = target: Sodium channel protein type 5 subunit alpha (Homo sapiens, UniProt Q14524); assay type: functional, cell-based
[9] = target: Voltage-dependent L-type calcium channel subunit alpha-1C (Homo sapiens, UniProt Q13936); assay type: functional, cell-based
[10] = target: T3, Histamine H1 receptor (Homo sapiens, UniProt P35367); assay type: functional, cell-based
[11] = target: T3, Histamine H1 receptor; assay type: functional, cell-based; remark: listed apart in the source
[12] = target: Gamma-aminobutyric acid receptor subunit alpha-1/alpha-2/beta-2/gamma-2 (Homo sapiens, UniProt P14867+P18507+P47869+P47870); assay type: functional, cell-based
Also: assay procedure not described here.

Voltage-dependent L-type calcium channel subunit alpha-1C, sequence (Q13936 whole entry): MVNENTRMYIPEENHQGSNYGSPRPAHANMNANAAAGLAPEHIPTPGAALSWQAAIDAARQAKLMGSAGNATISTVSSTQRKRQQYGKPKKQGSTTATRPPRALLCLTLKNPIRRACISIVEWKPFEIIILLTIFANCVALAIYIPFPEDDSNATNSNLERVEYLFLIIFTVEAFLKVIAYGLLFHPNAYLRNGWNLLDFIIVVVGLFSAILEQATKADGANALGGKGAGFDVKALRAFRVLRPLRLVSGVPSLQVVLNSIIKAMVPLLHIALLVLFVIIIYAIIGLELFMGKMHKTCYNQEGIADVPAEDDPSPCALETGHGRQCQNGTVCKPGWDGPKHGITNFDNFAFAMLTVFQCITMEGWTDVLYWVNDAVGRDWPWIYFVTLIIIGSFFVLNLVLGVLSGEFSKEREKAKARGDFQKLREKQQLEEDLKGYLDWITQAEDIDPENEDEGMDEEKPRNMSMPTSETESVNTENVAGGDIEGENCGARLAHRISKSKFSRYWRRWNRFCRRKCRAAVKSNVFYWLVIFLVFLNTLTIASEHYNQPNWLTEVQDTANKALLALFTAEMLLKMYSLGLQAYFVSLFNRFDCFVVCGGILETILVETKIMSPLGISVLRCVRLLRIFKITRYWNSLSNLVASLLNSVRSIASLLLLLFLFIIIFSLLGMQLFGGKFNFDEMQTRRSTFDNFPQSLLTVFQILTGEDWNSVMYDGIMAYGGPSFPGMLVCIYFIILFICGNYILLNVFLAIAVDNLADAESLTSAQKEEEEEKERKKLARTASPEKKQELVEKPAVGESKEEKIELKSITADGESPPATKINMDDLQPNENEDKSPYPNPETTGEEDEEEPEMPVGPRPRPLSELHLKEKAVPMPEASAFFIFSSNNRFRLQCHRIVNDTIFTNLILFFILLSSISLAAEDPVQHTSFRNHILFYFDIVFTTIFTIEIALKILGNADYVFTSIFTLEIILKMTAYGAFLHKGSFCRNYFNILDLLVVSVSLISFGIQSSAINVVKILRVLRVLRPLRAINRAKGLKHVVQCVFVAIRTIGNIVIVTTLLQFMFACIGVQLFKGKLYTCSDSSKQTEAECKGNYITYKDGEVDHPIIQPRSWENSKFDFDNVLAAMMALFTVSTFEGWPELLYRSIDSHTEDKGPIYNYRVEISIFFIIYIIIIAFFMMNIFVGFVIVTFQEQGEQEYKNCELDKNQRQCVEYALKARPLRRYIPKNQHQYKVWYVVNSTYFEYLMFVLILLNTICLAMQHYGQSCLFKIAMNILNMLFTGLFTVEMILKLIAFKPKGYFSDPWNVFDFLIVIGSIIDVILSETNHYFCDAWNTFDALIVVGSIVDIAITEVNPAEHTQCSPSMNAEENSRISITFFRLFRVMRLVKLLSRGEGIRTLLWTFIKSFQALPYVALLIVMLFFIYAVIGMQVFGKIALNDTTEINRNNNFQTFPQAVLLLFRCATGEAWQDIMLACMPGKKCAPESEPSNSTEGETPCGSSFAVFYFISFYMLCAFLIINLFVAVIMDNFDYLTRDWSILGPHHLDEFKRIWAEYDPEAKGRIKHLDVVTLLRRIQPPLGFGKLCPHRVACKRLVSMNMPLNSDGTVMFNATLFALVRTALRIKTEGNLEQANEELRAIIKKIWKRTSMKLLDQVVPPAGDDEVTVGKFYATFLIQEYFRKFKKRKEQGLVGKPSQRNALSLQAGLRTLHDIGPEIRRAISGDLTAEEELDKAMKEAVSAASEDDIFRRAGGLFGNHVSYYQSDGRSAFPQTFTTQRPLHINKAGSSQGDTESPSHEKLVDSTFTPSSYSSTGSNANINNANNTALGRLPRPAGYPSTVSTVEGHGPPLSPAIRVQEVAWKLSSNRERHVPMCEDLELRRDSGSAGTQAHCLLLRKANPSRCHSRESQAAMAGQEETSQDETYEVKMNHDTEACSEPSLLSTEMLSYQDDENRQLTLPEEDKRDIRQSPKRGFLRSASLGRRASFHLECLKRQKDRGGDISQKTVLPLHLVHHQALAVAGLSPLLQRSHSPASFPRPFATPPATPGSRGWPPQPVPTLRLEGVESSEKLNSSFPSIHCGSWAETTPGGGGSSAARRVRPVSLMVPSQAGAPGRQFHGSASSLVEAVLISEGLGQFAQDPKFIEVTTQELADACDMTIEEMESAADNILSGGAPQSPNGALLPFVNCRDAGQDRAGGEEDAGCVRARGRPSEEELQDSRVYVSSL
T3 sequence (P35367 whole entry): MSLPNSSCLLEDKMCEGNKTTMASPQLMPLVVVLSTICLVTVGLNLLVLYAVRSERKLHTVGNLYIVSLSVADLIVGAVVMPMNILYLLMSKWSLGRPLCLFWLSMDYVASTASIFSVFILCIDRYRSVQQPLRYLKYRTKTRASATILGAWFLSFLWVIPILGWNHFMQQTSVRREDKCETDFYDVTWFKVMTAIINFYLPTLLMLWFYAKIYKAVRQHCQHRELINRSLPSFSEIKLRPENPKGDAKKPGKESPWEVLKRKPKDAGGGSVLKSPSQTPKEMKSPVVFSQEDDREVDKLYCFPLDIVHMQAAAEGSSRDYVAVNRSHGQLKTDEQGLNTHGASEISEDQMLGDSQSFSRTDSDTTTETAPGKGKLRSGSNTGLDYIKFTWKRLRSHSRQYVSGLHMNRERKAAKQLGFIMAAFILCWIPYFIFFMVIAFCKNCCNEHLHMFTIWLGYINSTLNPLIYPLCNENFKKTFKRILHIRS
Gamma-aminobutyric acid receptor subunit alpha-1/alpha-2/beta-2/gamma-2, sequence (P14867 whole entry): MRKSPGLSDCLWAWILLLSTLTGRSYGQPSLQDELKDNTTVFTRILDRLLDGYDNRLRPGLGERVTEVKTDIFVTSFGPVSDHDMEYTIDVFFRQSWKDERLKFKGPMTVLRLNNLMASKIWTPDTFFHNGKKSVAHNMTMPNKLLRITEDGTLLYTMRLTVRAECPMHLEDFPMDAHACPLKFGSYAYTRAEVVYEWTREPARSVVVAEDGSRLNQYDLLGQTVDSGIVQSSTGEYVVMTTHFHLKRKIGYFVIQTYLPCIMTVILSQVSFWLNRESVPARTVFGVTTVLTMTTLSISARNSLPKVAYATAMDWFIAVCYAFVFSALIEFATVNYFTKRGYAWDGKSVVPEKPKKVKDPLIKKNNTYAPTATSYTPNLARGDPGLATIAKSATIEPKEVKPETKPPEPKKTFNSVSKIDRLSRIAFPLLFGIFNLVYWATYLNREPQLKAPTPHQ
Gamma-aminobutyric acid receptor subunit alpha-1/alpha-2/beta-2/gamma-2, sequence (P47870 whole entry): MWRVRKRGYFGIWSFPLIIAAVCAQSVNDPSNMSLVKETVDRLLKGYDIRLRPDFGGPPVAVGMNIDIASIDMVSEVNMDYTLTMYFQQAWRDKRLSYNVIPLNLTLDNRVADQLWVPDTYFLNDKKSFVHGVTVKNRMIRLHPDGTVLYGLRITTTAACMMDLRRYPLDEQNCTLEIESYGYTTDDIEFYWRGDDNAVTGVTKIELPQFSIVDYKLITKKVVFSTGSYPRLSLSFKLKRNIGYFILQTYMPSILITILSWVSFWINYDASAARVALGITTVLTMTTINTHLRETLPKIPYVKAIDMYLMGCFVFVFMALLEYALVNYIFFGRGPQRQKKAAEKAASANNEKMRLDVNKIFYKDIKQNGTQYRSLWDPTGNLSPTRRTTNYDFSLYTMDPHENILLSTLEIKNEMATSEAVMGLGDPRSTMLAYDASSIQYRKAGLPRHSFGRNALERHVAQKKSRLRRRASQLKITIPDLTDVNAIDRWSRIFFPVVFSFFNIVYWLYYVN
Gamma-aminobutyric acid receptor subunit alpha-1/alpha-2/beta-2/gamma-2, sequence (P18507 whole entry): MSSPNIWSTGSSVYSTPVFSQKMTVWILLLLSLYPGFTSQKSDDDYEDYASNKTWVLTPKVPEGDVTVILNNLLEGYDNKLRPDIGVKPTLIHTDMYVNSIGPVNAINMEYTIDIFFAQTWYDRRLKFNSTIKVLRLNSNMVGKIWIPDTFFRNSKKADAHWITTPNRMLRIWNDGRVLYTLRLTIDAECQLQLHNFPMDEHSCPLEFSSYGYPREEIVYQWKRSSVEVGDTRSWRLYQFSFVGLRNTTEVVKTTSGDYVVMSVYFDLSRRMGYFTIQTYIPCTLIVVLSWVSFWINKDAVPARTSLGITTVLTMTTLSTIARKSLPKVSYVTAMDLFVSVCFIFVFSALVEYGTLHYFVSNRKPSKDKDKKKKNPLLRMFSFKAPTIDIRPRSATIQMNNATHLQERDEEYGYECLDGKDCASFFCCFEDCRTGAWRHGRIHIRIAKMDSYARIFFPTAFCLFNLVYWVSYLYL
Gamma-aminobutyric acid receptor subunit alpha-1/alpha-2/beta-2/gamma-2, sequence (P47869 whole entry): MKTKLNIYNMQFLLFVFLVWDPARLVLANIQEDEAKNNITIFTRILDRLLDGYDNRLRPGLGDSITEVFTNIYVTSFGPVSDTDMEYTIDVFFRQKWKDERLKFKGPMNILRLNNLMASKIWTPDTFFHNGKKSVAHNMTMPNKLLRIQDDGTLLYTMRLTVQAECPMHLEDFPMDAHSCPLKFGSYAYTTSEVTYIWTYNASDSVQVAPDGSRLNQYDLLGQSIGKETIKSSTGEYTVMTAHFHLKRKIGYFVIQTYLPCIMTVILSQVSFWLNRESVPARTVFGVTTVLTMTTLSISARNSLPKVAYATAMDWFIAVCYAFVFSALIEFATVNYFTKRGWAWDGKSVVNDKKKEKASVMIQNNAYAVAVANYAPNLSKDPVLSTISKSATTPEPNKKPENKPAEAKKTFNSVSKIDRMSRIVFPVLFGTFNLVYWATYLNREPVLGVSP
D(1A) dopamine receptor, sequence (P21728 whole entry): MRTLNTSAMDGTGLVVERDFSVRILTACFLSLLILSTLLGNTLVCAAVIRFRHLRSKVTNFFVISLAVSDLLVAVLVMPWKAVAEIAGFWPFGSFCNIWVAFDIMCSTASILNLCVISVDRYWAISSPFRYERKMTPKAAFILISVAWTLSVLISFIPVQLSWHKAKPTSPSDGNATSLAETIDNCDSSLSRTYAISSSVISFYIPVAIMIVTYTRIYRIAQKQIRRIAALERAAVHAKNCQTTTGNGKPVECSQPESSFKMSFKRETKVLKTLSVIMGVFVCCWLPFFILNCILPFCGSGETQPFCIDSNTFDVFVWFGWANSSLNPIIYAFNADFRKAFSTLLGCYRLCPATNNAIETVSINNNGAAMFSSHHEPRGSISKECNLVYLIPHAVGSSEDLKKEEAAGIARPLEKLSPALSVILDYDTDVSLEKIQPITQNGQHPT

`CN1CCN(C(=O)OC2c3nccnc3C(=O)N2c2ccc(Cl)cn2)CC1` (stereo unspecified) [ZOPICLONE] showed an AC50 [1] of over 10 µM, an AC50 [2] of over 30 µM and an AC50 [3] of over 10 µM. For the same compound, the AC50 [4] was over 30 µM, the AC50 [5] was over 10 µM and the AC50 [6] was over 30 µM.

`COc1c(C)c2c(c(O)c1C/C=C(\C)CCC(=O)OCCN1CCOCC1)C(=O)OC2` [MYCOPHENOLATE MOFETIL] showed an AC50 [7] of over 30 µM.

`CCCCOc1cc(C(=O)NCCN(CC)CC)c2ccccc2n1` [DIBUCAINE] showed an AC50 [8] of 1.8 µM and an AC50 [9] of 22 µM.

`CC/C=C\C/C=C\C/C=C\CCCCCCCC(=O)O` [LINOLENIC ACID] gave an AC50 [10] of over 30 µM, an AC50 [11] of over 30 µM and an AC50 [12] of over 30 µM.

In the case of `Nc1nc2ccc(OC(F)(F)F)cc2s1` [RILUZOLE], the AC50 [2] is reported as over 30 µM, the AC50 [9] is reported as over 50 µM and the AC50 [4] is reported as over 30 µM. It also gave an AC50 [12] of over 30 µM.

`CC(C)(Oc1ccc(C2CC2(Cl)Cl)cc1)C(=O)O` (stereo unspecified) [CIPROFIBRATE] gave an AC50 [2] of over 30 µM and an AC50 [4] of over 30 µM.

`CC(Cc1ccccc1)NCCC(c1ccccc1)c1ccccc1` (stereo unspecified) [PRENYLAMINE] showed an AC50 [8] of 7.1 µM and an AC50 [9] of 47 µM.

In the case of `O=C1CN=C(c2ccccc2)c2cc(Cl)ccc2N1CC(F)(F)F` [HALAZEPAM], the AC50 [10] is reported as over 30 µM, the AC50 [2] is reported as over 30 µM and the AC50 [11] is reported as over 30 µM. The AC50 [4] was over 30 µM and the AC50 [12] was over 30 µM.

`CCC(C(=O)O)c1ccc(CC(C)C)cc1` (stereo unspecified) [BUTIBUFEN] gave an AC50 [7] of over 30 µM.

`[H]/N=C(/N)c1ccc(NCc2nc3cc(C(=O)N(CCC(=O)O)c4ccccn4)ccc3n2C)cc1` [DABIGATRAN] gave an AC50 [8] of over 30 µM, an AC50 [2] of over 30 µM and an AC50 [4] of over 30 µM. For the same compound, the AC50 [12] was over 30 µM.

For `CN[C@@H](C)[C@H](O)c1ccccc1` [EPHEDRINE], the AC50 [8] was over 30 µM, the AC50 [3] was over 10 µM and the AC50 [5] was over 10 µM. The AC50 [6] was over 30 µM.

`CCCOc1ccc(C(=O)OCCN(CC)CC)cc1N` [PROPARACAINE] was tested, and the AC50 [2] was over 30 µM and the AC50 [4] was over 30 µM.

For `C=C1CC[C@@]2(O)[C@H]3Cc4ccc(O)c5c4[C@@]2(CCN3CC2CC2)[C@H]1O5`, the AC50 [10] was over 30 µM, the AC50 [11] was over 30 µM and the AC50 [12] was over 30 µM.

`Cc1c(C(=O)Nc2ccc(N3C[C@@H](C)O[C@@H](C)C3)nc2)cccc1-c1ccc(OC(F)(F)F)cc1` [SONIDEGIB] gave an AC50 [3] of over 10 µM, an AC50 [5] of over 10 µM and an AC50 [6] of over 30 µM.

`COc1ccc2cccc(CCNC(C)=O)c2c1` [AGOMELATINE] was tested, and the AC50 [3] was over 10 µM, the AC50 [5] was over 10 µM and the AC50 [6] was over 30 µM.

In the case of `COc1ccc(C(=O)N2CCN(c3ccc4c(c3)CCC(=O)N4)CC2)cc1OC` [VESNARINONE], the AC50 [10] is reported as over 30 µM, the AC50 [11] is reported as over 30 µM and the AC50 [12] is reported as over 30 µM.

Work on `CN1CCc2cccc3c2[C@H]1Cc1ccc(O)c(O)c1-3` [APOMORPHINE] yielded an AC50 [6] of over 30 µM.

Work on `Cc1cccc(C)c1NC(=O)C1CCCCN1C` (stereo unspecified) [MEPIVACAINE] yielded an AC50 [2] of over 30 µM and an AC50 [4] of over 30 µM.
